# Measurements: paper PMC10182956 (Archives of Toxicology, 2023)
# Like-named read-outs stand apart in the source and are kept apart here.
# What was measured:
# [1] = parameters: method as in Adedayo Adedoyin, Leon Arons 1993a; settings: rat; plasma clearance; ref Adedayo Adedoyin, Leon Arons 1993a; cited from earlier work
# [2] = parameters: method as in Adedayo Adedoyin, Leon Arons 1993a; settings: fraction unbound plasma; rat; ref Adedayo Adedoyin, Leon Arons 1993a; cited from earlier work
# [3] = Published in vivo pharmacokinetics (Css, clearance); settings: for hepatocyte CLint: hepatocytes (back-calculated, no incubation), in vitro intrinsic hepatic clearance calculated from in vivo clearance with formula 3, read-out: Calculated Clint (ul/min/10^6 cells); for In vivo Css (µM): calculated with Css = (Dose*F)/(Cl*dosing interval) or k0/Cl from published pharmacokinetic parameters, ref Cunningham 2007, Adedayo Adedoyin, Leon Arons 1993b
# Text: For the model evaluation, Css of selected reference chemicals were predicted using formula 1 with the same dose rate from the in vivo Css measurements. For chemicals with no in vitro intrinsic hepatic clearance and fraction unbound values available in the database included in the httk package, in silico predictions from (Sipes et al. [2017]) were loaded using load_sipes2017(). […]. The formula to calculate Clint was derived from the function calc_hepatic_clearance within the httk package. Predicted Css values were then compared to published in vivo Css values. If there was no published in vivo Css available, Css was then calculated based on published in vivo pharmacokinetic parameters using the following formula (Supplementary table 3)4 Css(mg/L)=(Dose×F)/(Cl×dosinginterval)
# (§1) Supplementary table 3. Comparison of benchmark concentration and predicted Css with published pharmacokinetic values. Where indicated, in vivo derived Css values were calculated using following formula: Css = (Dose*F)/(Cl*dosing interval) or Css = k0/Cl with F = bioavailability, Cl = clearance, k0 = infusion rate and Css = steady state concentration.
# [4] = test system: HepaRG cells; settings: HepaRG 24 h, population level; threshold ± 2 standard deviations of the response at the two lowest concentrations
# [5] = test system: HepaRG cells; assay: High-content imaging assay: lipid accumulation (Bodipy lipid droplets); format: cell-based; settings: HepaRG 24 h; for Lipid accumulation response (in words): population level, threshold ± 2 standard deviations of the response at the two lowest concentrations; for EC (BMC, 1 SD from control): Homo sapiens, lipid accumulation, Supplementary table 3, read-out: LA: Benchmark concentration (µM) per imaging endpoint calculated with BMDS software
# [6] = test system: HepaRG cells; settings: HepaRG 24 h; for Mitochondrial membrane potential response (in words): population level, threshold ± 2 standard deviations of the response at the two lowest concentrations
# [7] = test system: HepaRG cells; settings: HepaRG 24 h; for Number of apoptotic cells (nuclear morphology) response (in words): population level, threshold ± 2 standard deviations of the response at the two lowest concentrations
# Description: (§3) Cellular responses were quantified using a high-content imaging approach (Fig. 1). Based on cell viability assessment, concentrations below the EC50 level were tested in the high-content imaging assay. After 24 h chemical exposure, live cells were incubated with CellROX, which reflects hydroxyl radi [...
# [8] = parameters: method as in Literature column of Supplementary table 4; settings: value added to httk database; ref Supplementary table 4; cited from earlier work
# [9] = cited from earlier work
# [10] = IVIVE reverse dosimetry: oral equivalent dose (OED) from BMC; settings: IVIVE derived median over all positive imaging endpoints; rabbit simulation (R script); Table 2
# Text: (§2) Human data were used except where otherwise stated. […]
# mc_OED_MEN_LD <- calc_mc_oral_equiv(2.835, chem.cas="58-27-5", model = "3compartmentss",species = "Rabbit",return.samples = T, samples=1000, httkpop = T) mc_OED_MEN_NM <- calc_mc_oral_equiv(8.1, chem.cas="58-27-5", model = "3compartmentss",species = "Rabbit", return.samples = T, samples=1000, httkpop = T) quantile_OED_MEN_LD <- quantile(mc_OED_MEN_LD, c(0.05, 0.5, 0.95), na.rm = TRUE) quantile_OED_MEN_NM <- quantile(mc_OED_MEN_NM, c(0.05, 0.5, 0.95), na.rm = TRUE)
# [11] = test system: HepaRG cells; assay: Cell viability assessment (WST-1 assay); format: cell-based, human; settings: Homo sapiens, 24 h exposure, reference chemicals, 95% CI in brackets, read-out: EC50 µM (95% CI) from cell viability (WST-1)
# Text: Undifferentiated HepaRG cells were purchased from Biopredic international (Saint Grégoire, France). HepaRG cells have unlimited growth capacity and phenotypic stability, stable enzymatic activities over 4 weeks of cultivation, and similar metabolic function to primary human hepatocytes, and also avoid limitations of primary cells such as donor variability and phenotypic instability (Aninat et al. [2006]; Guillouzo et al. [2007]; Lambert et al. [2009]; Lübberstedt et al. [2011]; Andersson et al. [2012]). The line contains two cell types, hepatocyte-like and cholangiocyte-like cells (Parent et al. [2004]), which allows for elucidation of cell-specific toxicity (Jossé et al. [2008]). Cells were seeded at a density of approximately 27′000 cells/cm^2 into a 150 × 25 mm petri dish and were cultured for 2 weeks in William’s E medium (cat. nr.: 32,551,020, ThermoFisher Scientific, Massachusetts, USA) supplemented with 2 mM glutamine, 10% (v/v) fetal bovine serum (FBS) good forte (cat. nr.: P40-47,500, PAN-Biotech, Aidenbach, Germany), 100 U/ml penicillin and 100 µg/ml streptomycin (cat. nr.: 15,140,122, ThermoFisher Scientific, Massachusetts, USA), 5 µg/ml Gibco recombinant AOF insulin (cat. nr.: A11382II, ThermoFisher Scientific, Massachusetts, USA) and 50 µM hydrocortisone hemisuccinate (cat. nr.: H4881, Sigma-Aldrich, St. Louis, USA) at 37 °C and 5% CO2. Differentiation was induced by culturing the cells for another 2 weeks in the above mentioned medium supplemented with 1.7% DMSO. After 4 weeks in culture, differentiated HepaRG cells were seeded at a high density of approximately 227′000 cells/cm^2 (72,000 cells/well with 100 µl per well) into black 96-well plates with a clear bottom (cat.nr.: 3603, Corning, New York, USA) and maintained for 10 days. After 10 days, cells were first adapted to treatment medium (culture medium containing 0.5% DMSO and 2% FBS) for 48 h and then used for cell viability and high-content imaging analysis.
# Cell viability was analyzed using the WST-1 assay which is based on the measurement of mitochondrial dehydrogenase activity (cat. nr: ab155902, Abcam, Cambridge, UK). HepaRG cells were exposed to chemicals at defined concentrations for 24 h. Triton X-100 (0.01%) was a positive control. One hour before the end of incubation period, 10 µl of WST-1 reagent was added to each well, quickly mixed by shaking the plate, and returned to the cell culture incubator (37 °C, 5% CO2). After 1 h, absorbance was measured (450 nm, reference wavelength 620 nm) using a plate reader (Infinite M200 Pro, Tecan group, Männerdorf, Switzerland). Absorbance was then subtracted from the reference wavelength, corrected for background by subtracting values measured without cells, and then normalized to the solvent control, which was set to 100%. Dose–response data were fitted using drc package (Version 3.0.1) (Ritz et al. [2015]) in R 3.6.1. Data were from at least 3 independent experiments with 6 technical replicates per condition.
# [12] = test system: HepaRG cells; assay: cells; settings: Homo sapiens, 24 h, read-out: NM: Benchmark concentration (µM) per imaging endpoint calculated with BMDS software
# Description: as §3
# [13] = parameters: method as in Hu et al. 1996; settings: fraction unbound plasma; rabbit; ref Hu et al. 1996; cited from earlier work
# [14] = test system: HepaRG cells; assay: cells; settings: Homo sapiens, 24 h, read-out: MMP: Benchmark concentration (µM) per imaging endpoint calculated with BMDS software
# [15] = IVIVE reverse dosimetry: oral equivalent dose (OED) from BMC; settings: IVIVE derived median over all positive imaging endpoints; rat simulation (R script); Table 2
# Text: as §2
# mc_OED_WY14643_LD <- calc_mc_oral_equiv(40.98, chem.cas="50892-23-4", model = "3compartmentss",species="Rat", return.samples = T, samples=1000, httkpop = T) mc_OED_WY14643_MD <- calc_mc_oral_equiv(38.1, chem.cas="50892-23-4", model = "3compartmentss",species="Rat", return.samples = T, samples=1000, httkpop = T) mc_OED_WY14643_NM <- calc_mc_oral_equiv(386.28, chem.cas="50892-23-4", model = "3compartmentss",species="Rat", return.samples = T, samples=1000, httkpop = T)
# [16] = IVIVE derived median over all positive imaging endpoints; human simulation; Table 2
# Description: In our study, a three-compartment steady state pharmacokinetic (PK) model was parameterized and used for the simulations. […] Human data were used except where otherwise stated. Steady-state concentration (Css) in the blood was calculated using formula 1 (Pearce et al. [2017])1 Cssmg/l=ko/(GFR×fup+Qliver+Qgut×fup×Clmetabolism/Qliver+Qgut+fup×Clmetabolism/Rblood2plasma) where ko = constant dose rate (mg/kg BW/day), fup = in vitro measured chemical fraction unbound in plasma, Clmetabolism = metabolic clearance scaled from in vitro intrinsic hepatic clearance, Rblood2plasma = ratio of blood concentration of a chemical to the plasma concentration, GFR = glomerular filtration rate (mean 5.17 ml/min/kg^3/4), Qliver = blood flow to the liver (mean 59.9 ml/min/kg^3/4), and Qgut = blood flow to the gut (mean 47.5 ml/min/kg^3/4). Fraction unbound, metabolic clearance, and Rblood2plasma values were obtained from the httk package or from literature. Recognizing that formula 1 is linear in dose rate (ko), oral equivalent doses (OED) were then calculated using the Css predicted for a 1 mg/kg/day dose rate as in formula 2 (Rotroff et al. [2010]).2 OEDmg/kg/day=BMCuM×1mg/kg/day/CssuM
# The calculated OED corresponds to an oral daily dose which would lead to a plasma concentration equal to the in vitro-derived BMC. The OED is linearly related to the BMC and inversely related to Css. This equation is only valid for first-order metabolism (Rotroff et al. [2010]). A Monte Carlo analysis was used to simulate population variability in, GFR, Qliver, Qgut, and Clmetabolism across 1000 healthy individuals. Extrapolations were performed for each chemical and endpoint which was positive in the imaging assay. […]
# Vice versa, predicted OED derived from BMC were compared to published exposure values of the corresponding chemicals. Simulations were performed in humans where pharmacokinetic parameters for humans were available; otherwise, estimations were calculated in rats or rabbits, as stated in Fig. 7.
# [17] = human; after 50 mg p.o.; ref Aegerion Pharmaceuticals 2012; cited from earlier work
# [18] = parameters: method as in earlier work; settings: fraction unbound plasma; human; ref Aegerion Pharmaceuticals 2012; Bowsher et al. 1994; Scheen 1996; cited from earlier work
# [19] = Published in vivo pharmacokinetics (Css, plasma concentration, clearance); settings: human
# Description: For the model evaluation, Css of selected reference chemicals were predicted using formula 1 with the same dose rate from the in vivo Css measurements. […] The formula to calculate Clint was derived from the function calc_hepatic_clearance within the httk package. Predicted Css values were then compared to published in vivo Css values. If there was no published in vivo Css available, Css was then calculated based on published in vivo pharmacokinetic parameters using the following formula (Supplementary table 3)4 Css(mg/L)=(Dose×F)/(Cl×dosinginterval)
# as §1
SMILES,In vivo Css (µM) ([3]; rat),Oxidative stress response (in words) [4],Lipid accumulation response (in words) [5],Mitochondrial membrane potential response (in words) [6],Number of apoptotic cells (nuclear morphology) response (in words) [7],LogP [8],"EC (BMC, 1 SD from control) [5] [µM]",EC50 [11] [µM],EC (BMC) [12] [µM],"EC (BMC, 1 SD from control) [14] [µM]",other results
O=c1cc(-c2ccccc2)oc2ccc3ccccc3c12 [β-naphthoflavone],2.3^3 µM,none of the hallmarks were induced,did not give rise to lipid accumulation,none of the hallmarks were induced,none of the hallmarks were induced,4.4,–,–,–,–,In vivo clearance (L/h) [1]: 1.3 (plasma clearance) L/h; Fup [2]: 0.04; hepatocyte CLint ([3]; rat): 23.4 µL/min/1e6 cells; Lipid accumulation response (in words) ([5]; listed as BNF): not
CC1=CC(=O)c2ccccc2C1=O [menadione],–,unexpected negative outcomes,increased in a dose-dependent manner,–,–,2.2,2.8,59.1,8.1,–,"In vivo Css (µM) ([9]; in rabbits, reference cell empty): 12.6^4 µM; In vivo clearance ([9]; rabbit, ref Hu et al. 1996): 49.32 L/h; hepatocyte CLint ([3]; rabbit): 58.3 µL/min/1e6 cells; OED [10]: 55.4 mg/kg/day; Concentration at which increase of number of apoptotic cells (nuclear morphology) exceeded the threshold [7]: 25 µM; Fup [13]: 0.2"
Cc1cccc(Nc2cc(Cl)nc(SCC(=O)O)n2)c1C [WY14643],"2.5^3,5 µM",–,dose-dependently increased and exceeded the threshold,MMP hyperpolarization,induced apoptosis,–,41,–,386,38.1,Lipid accumulation response (in words) ([5]; listed as WY-14693): having the potential to induce lipid accumulation; OED [15]: 1.7 mg/kg/day
O=C(NC1CCN(CCCCC2(C(=O)NCC(F)(F)F)c3ccccc3-c3ccccc32)CC1)c1ccccc1-c1ccc(C(F)(F)F)cc1 [lomitapide],–,no changes were observed,not and did not give rise to lipid accumulation,–,increased above the threshold,8.2,–,13.5,4,0.58,"OED [16]: 1333 mg/kg/day; In vivo clearance (L/h) [17]: 573.4656 (after 50 mg p.o.) L/h; Fup [18]: 0.002; hepatocyte CLint ([19]; hepatocytes (back-calculated, no incubation), in vitro intrinsic hepatic clearance calculated from in vivo clearance with formula 3, read-out: Calculated Clint (ul/min/10^6 cells)): 48.3 µL/min/1e6 cells; In vivo Css (µM) ([19]; calculated with Css = (Dose*F)/(Cl*dosing interval) or k0/Cl from published pharmacokinetic parameters, ref Bowsher et al. 1994, Welling et al. 1977): 0.0002^3 µM; Concentration at which decrease of mitochondrial membrane potential exceeded the threshold [6]: 12 µM"
